Measurements from US20260053861A1, “CELL COMPOSITIONS AND METHODS OF USING THE SAME” (THE REGENTS OF THE UNIVERSITY OF CALIFORNIA, priority 2022, published 2026).
Structures can show the parent of a compound that is named as a salt.

Tested on: hPSC-SCs
Conditions: not given

Going from `Cl.O=c1[nH]oc2c1CCNC2` [THIP Hydrochloride] to `CCNC1(c2cccs2)CCCCC1=O.Cl` (stereo not drawn) [Tiletamine hydrochloride], the z.score.t rises from 0.9162 to 1.958.

Going from `CCC(=O)O[C@H]1CC[C@H]2[C@@H]3CCC4=CC(=O)CC[C@]4(C)[C@H]3CC[C@]12C` [Testosterone propionate] to `C[C@H]1CC[C@]2(NC1)O[C@H]1C[C@H]3[C@@H]4CC[C@H]5C[C@@H](O)CC[C@]5(C)[C@H]4CC[C@]3(C)[C@H]1[C@@H]2C` [Tomatidine], the z.score.t rises from −1.014 to −0.2904.

Going from `CCCCNc1ccc(C(=O)OCCN(C)C)cc1.Cl` [TetracaÂ<ne hydrochloride] to `COc1c(O[C@@H]2O[C@H](CO)[C@@H](O)[C@H](O)[C@H]2O)cc2c(c1OC)-c1ccc(SC)c(=O)cc1[C@@H](NC(C)=O)CC2` [Thiocolchicoside], the z.score.t rises from −0.2276 to 1.11.

First: Cn1c(=O)c2[nH]cnc2n(C)c1=O.O [Theophylline monohydrate]
Second: N[C@@H](Cc1cc(I)c(Oc2cc(I)c(O)c(I)c2)c(I)c1)C(=O)O [Thyroxine (L)]
The z.score.t of the first is lower: −1.123 for the first, −0.8478 for the second.

Compared with `C=C(NC(=O)C(=C)NC(=O)c1csc(C2=N[C@@H]3c4csc(n4)[C@H]4NC(=O)c5csc(n5)[C@H]([C@](C)(O)[C@@H](C)O)NC(=O)[C@H]5CSC(=N5)/C(=C/C)NC(=O)[C@H]([C@@H](C)O)NC(=O)c5csc(n5)[C@]3(CC2)NC(=O)[C@H](C)NC(=O)C(=C)NC(=O)[C@H](C)NC(=O)[C@H]([C@@H](C)CC)N[C@@H]2C=Cc3c([C@H](C)O)cc(nc3[C@H]2O)C(=O)O[C@@H]4C)n1)C(N)=O` [Thiostrepton], `C[C@H]1CC[C@]2(NC1)O[C@H]1C[C@H]3[C@@H]4CC[C@H]5C[C@@H](O[C@@H]6O[C@H](CO)[C@H](O[C@@H]7O[C@H](CO)[C@@H](O)[C@H](O[C@@H]8OC[C@@H](O)[C@H](O)[C@H]8O)[C@H]7O[C@@H]7O[C@H](CO)[C@@H](O)[C@H](O)[C@H]7O)[C@H](O)[C@H]6O)CC[C@]5(C)[C@H]4CC[C@]3(C)[C@H]1[C@@H]2C` [Tomatine] is lower in z.score.t: 0.6013 for the first, −1.873 for the second.

Same assay, conditions: HTS viability of hPSC-SCs in the presence of 30 mM glucose; Prestwick library; Table S4

Going from `CCOC(=O)Oc1c(OC)cc(C(=O)O[C@@H]2C[C@@H]3CN4CCc5c([nH]c6cc(OC)ccc56)[C@H]4C[C@@H]3[C@H](C(=O)OC)[C@H]2OC)cc1OC` [Syrosingopine] to `COc1ccc2cc1Oc1ccc(cc1)C[C@H]1c3cc(c(OC)cc3CCN1C)Oc1c(OC)c(OC)cc3c1[C@H](C2)N(C)CC3` [Tetrandrine], the z.score.t rises from −0.4543 to −0.4538.

First: Nc1c2c(nc3ccccc13)CCCC2 [Tacrine hydrochloride hydrate]
Second: c1ccc2c(c1)CCCC2C1=NCCN1 (stereo not drawn) [Tetrahydrozoline hydrochloride]
The z.score.t of the first is lower: −0.7049 for the first, 0.81 for the second.

Going from `CC1(C)S[C@@H]2[C@H](NC(=O)[C@H](N)c3ccccc3)C(=O)N2[C@H]1C(=O)OC1OC(=O)c2ccccc21` (stereo partly drawn) [Talampicillin hydrochloride] to `CC1(C)S[C@@H]2[C@H](NC(=O)[C@H](C(=O)O)c3ccsc3)C(=O)N2[C@H]1C(=O)O` [Ticarcillin sodium], the z.score.t rises from −0.8111 to −0.6389.

Going from `CC/C(=C(\c1ccccc1)c1ccc(OCCN(C)C)cc1)c1ccccc1` [Tamoxifen citrate] to `CC(C)(C)c1ccc(C(O)CCCN2CCC(C(O)(c3ccccc3)c3ccccc3)CC2)cc1` (stereo not drawn) [Terfenadine], the z.score.t rises from −1.827 to −0.8513.

First: Cc1scc2c1N(C(=O)CN1CCN(C)CC1)c1ccccc1NC2=O [Telenzepine dihydrochloride]
Second: CN1C(C(=O)Nc2ccccn2)=C(O)c2sccc2S1(=O)=O [Tenoxicam]
The z.score.t of the first is lower: 0.5452 for the first, 1.659 for the second.

First: COc1cc2nc(N3CCN(C(=O)C4CCCO4)CC3)nc(N)c2cc1OC (stereo not drawn) [Terazosin hydrochloride]
Second: CC(C)N1CCN(c2ccc(OCC3COC(Cn4cncn4)(c4ccc(Cl)cc4Cl)O3)cc2)CC1 (stereo not drawn) [Terconazole]
The z.score.t of the first is higher: 0.2582 for the first, −0.07901 for the second.

Going from `CN(C)[C@@H]1C(O)=C(C(N)=O)C(=O)[C@@]2(O)C(O)=C3C(=O)c4c(O)cccc4[C@@](C)(O)[C@H]3C[C@@H]12` [Tetracycline hydrochloride] to `O=C1CCC(N2C(=O)c3ccccc3C2=O)C(=O)N1` (stereo not drawn) [Thalidomide], the z.score.t falls from −0.2425 to −1.821.

Going from `O.O=C1C(O)=C(O)C(=O)C(O)=C1O` [Tetrahydroxy-1,4-quinone monohydrate] to `Cn1cnc2c1c(=O)[nH]c(=O)n2C` [Theobromine], the z.score.t falls from 1.323 to −1.169.

Compared with `c1ccc(C2CN3CCSC3=N2)cc1` (stereo not drawn) [Tetramisole hydrochloride], `N[C@@H]1C[C@H]1c1ccccc1` [Tranylcypromine hydrochloride] is higher in z.score.t: −0.3319 for the first, 0.08508 for the second.

First: Cc1ncc(C[n+]2csc(CCO)c2C)c(N)n1 [Thiamine hydrochloride]
Second: CCCCNc1c(C(=O)OCC)c(C)nc2c1cnn2CC [Tracazolate hydrochloride]
The z.score.t of the first is higher: −0.865 for the first, −0.9487 for the second.

Going from `CS(=O)(=O)c1ccc([C@@H](O)[C@@H](CO)NC(=O)C(Cl)Cl)cc1` [Thiamphenicol] to `CCN(CC)CCNC(=O)c1cc(S(C)(=O)=O)ccc1OC` [Tiapride hydrochloride], the z.score.t falls from 1.099 to 0.5452.

First: S=C(NC1CCCCC1)N1CCC(c2cnc[nH]2)CC1 [Thioperamide maleate]
Second: Cc1ccc(S(=O)(=O)NC(=O)NN2CCCCCC2)cc1 [Tolazamide]
The z.score.t of the first is higher: 0.8825 for the first, 0.1767 for the second.

Compared with `CSc1ccc2c(c1)N(CCC1CCCCN1C)c1ccccc1S2` (stereo not drawn) [Thioridazine hydrochloride], `Clc1ccccc1CN1CCc2sccc2C1` [Ticlopidine hydrochloride] is higher in z.score.t: −1.898 for the first, 0.7034 for the second.

First: O=C(O)CNC(=O)C(CS)Cc1ccccc1 (stereo not drawn) [Thiorphan]
Second: CC(C(=O)O)c1ccc(C(=O)c2ccccc2)s1 (stereo not drawn) [Tiaprofenic acid]
The z.score.t of the first is higher: 0.563 for the first, 0.04918 for the second.

First: CCCCCCCCCCCCCCCC[N+](C)(C)CCN(Cc1ccc(OC)cc1)c1ncccn1 [Thonzonium bromide]
Second: Cc1cccc(N(C)C(=S)Oc2ccc3ccccc3c2)c1 [Tolnaftate]
The z.score.t of the first is lower: −1.884 for the first, 0.378 for the second.

First: c1ccc2[nH]c(-c3cscn3)nc2c1 [Tiabendazole]
Second: c1ccc(CC2=NCCN2)cc1 [Tolazoline hydrochloride]
The z.score.t of the first is higher: 1.638 for the first, 1.268 for the second.

First: CCS(=O)(=O)CCn1c([N+](=O)[O-])cnc1C [Tinidazole]
Second: Cc1cccc(Nc2ccncc2S(=O)(=O)NC(=O)NC(C)C)c1 [Torsemide]
The z.score.t of the first is higher: 1.624 for the first, 0.2395 for the second.

First: NC[C@H]1O[C@H](O[C@H]2[C@H](O)[C@@H](O[C@H]3O[C@H](CO)[C@@H](O)[C@H](N)[C@H]3O)[C@H](N)C[C@@H]2N)[C@H](N)C[C@@H]1O [Tobramycin]
Second: NC[C@H]1CC[C@H](C(=O)O)CC1 [Tranexamic acid]
The z.score.t of the first is lower: −0.3936 for the first, 1.088 for the second.

Compared with `Cc1cccc(C)c1NC(=O)C(C)N` (stereo not drawn) [Tocainide hydrochloride], `Cc1c(Cl)cccc1Nc1ccccc1C(=O)O` [Tolfenamic acid] is lower in z.score.t: 0.8938 for the first, −0.528 for the second.

Compared with `Cc1c(C)c2c(c(C)c1O)CC[C@@](C)(CCC[C@H](C)CCC[C@H](C)CCCC(C)C)O2` [Tocopherol (R,S)], `Cc1ccc(C(=O)c2ccc(CC(=O)O)n2C)cc1` [Tolmetin sodium salt dihydrate] is higher in z.score.t: −0.7233 for the first, −0.05622 for the second.

`CCOC(=O)NNc1nncc2ccccc12` [Todralazine hydrochloride] showed a z.score.t of −0.4444.
